In patent publication US9925235B2, “Tilapia piscidins for use in enhancement of wound healing” (Academia Sinica, priority 2015, dated 2018):

What was measured:
TNF, IL-6, IL-1 = assay: ELISA of serum cytokines in MRSA wound-infected mice, TP4; type: in vivo
Protocol: A skin region of about 1 square centimeter was removed from the abdomen of […] mice, and the wound was infected with […] of broth mix containing 10^6 cfu of MRSA alone, or together with methicillin, vancomycin, or TP4. At different days post-infection: TNF (FIG. 9A), IL-6 (FIG. 9B), and IL-1 (FIG. 9C) were detected in serum by ELISA. (r=3; n=6.) Values with different letters show significant differences (P<0.05), as determined by ANOVA.
(§1) Skin tissues were removed and fixed as previously described. In brief, the cryosections were fixed with 4% formaldehyde, and the tissue samples were stained with VEGF. IHC was analyzed by three independent investigators. Images were taken using a BX-51 microscope (Olympus, Japan). ELISA was performed as previously described.

[1] = test system: EGF, TGF-β, VEGF gene expression; assay: Real-time PCR of cell proliferation genes and histology of infected wounds, TP4; type: in vivo, mice
Text: Adult mice were infected with MRSA, and treated with TP4 or antibiotics, while controls were infected but untreated. On the indicated days, total RNA was isolated from the wound and reverse transcribed for use in real-time qPCR analysis of EGF (FIG. 10A), TGF-β (FIG. 10B), and VEGF (FIG. 10C) gene expression. (r=3; n=6.) Values with different letters show significant differences (P<0.05), as determined by ANOVA.
Tracings were taken immediately after injury. For uncontaminated wounds, wound size was determined every second day. For contaminated wounds, mice were euthanized at days 3, 5, or 19, and tracings of the wound edges were made. Wound areas were determined using the Macintosh Adobe Photoshop program, Histogram Analysis. The percentage of wound contraction was calculated as follows: % Wound contraction=(A0−At)/A0×100, where A0 is the original wound area, and at is the area of wound at the time of biopsy, accordingly. Cell proliferation gene expression was performed by real-time PCR, using the methods described above.
as §1

[2] = test system: Keratin 10, keratin 17 gene expression in HaCaT cells; assay: Real-time PCR of keratin 10 and keratin 17 in HaCaT cells; type: cell-based, human; conditions: TP4 6.25 μg/ml, 48 h
Protocol: In FIG. 6A-6C, HaCaT cells were treated with different doses of TP4 for 48 h, and cell viability was measured by neutral red, LDH, and MTT assays (r=3; n=6). In FIGS. 6D and 6E, thee experimental HaCaT cells were treated with TP4 (6.25 μg/ml), while control cells were untreated. After 48 h, total RNA was isolated and reverse transcribed for use in real-time qPCR analysis. Six replicate wells were analyzed per assay. Results represent the mean±SEM from three independent experiments. (Student's t-test: *, P<0.05; **, P<0.01, n.s.: not significant).
Total RNA was isolated from HaCaT and Hs-68 cells, and purified using a Qiagen RNeasy kit. Reverse transcription into cDNA was performed with an iScript cDNA Synthesis Kit (BIO-RAD, USA) according to the manufacturer's recommendations. […] Quantitative PCR was performed under the following conditions: 40 cycles of 1 min at 95° C., 30 s at 55° C., and 1 min at 72° C. The threshold cycle number (Ct) was calculated with BIO-RAD software. Relative transcript quantities were calculated using the ΔCt method with GAPDH as the internal reference gene. ΔCt is the difference in the threshold cycles of messenger (m)RNA for selected genes relative to those of GAPDH mRNA. […]

[3] = test system: Hs-68 human foreskin fibroblast cell line; type: cell-based
Protocol: An MRSA strain commonly associated with human wound infections was selected to generate a polymicrobial solution. The MRSA strain is a clinical isolate from stool obtained from Taipei City Hospital (Heping Fuyou branch). The strain was identified by routine laboratory methods and stored in 20% (vol/vol) glycerol at −80° C. Tryptic Soy Broth (TSB) was used as the culture medium. HaCaT human keratinocyte cell line and Hs-68 human foreskin fibroblast cell line were grown in DMEM containing 10% (v/v) FBS, 0.37% (w/v) NaHCO3, penicillin (100 unit/ml), streptomycin (100 μg/ml), 0.1 mM NEAA, and 1 mM sodium pyruvate at 37° C. in a humidified incubator under 5% CO2 and 95% air. The cells were harvested at ca. 90% confluence (ca. 10^6 cells/10-cm dish). Balb/c female mice were used for the experiments. All mice were housed in cages under specific pathogen-free conditions, and given water and standard laboratory chow ad libitum during the experiments. All animal handing procedures were in accordance with National Taiwan Ocean University (NTOU) guidelines. All procedures were approved by the Animal Care and Use Committee of NTOU.
Cells were cultured at a density of 5×10^4 cells per well in flat-bottomed 96-well plates. […] Cell proliferation was measured by neutral red, LDH, and MTT assay, according to the manufacturer's instructions. […]

[4] = serum, 3 days after treatment, vs positive controls

“Tilapia piscidin 4 (FIHHIIGGLFSAGKAIHRLIRRRRR; listed as Oreochromis niloticus) [TP4]” was tested, and the IL-1 (TNF, IL-6, IL-1; TP4-treated wounds vs control wounds) was “statistically significant enhancement”, the “induction of IL-6” value (TNF, IL-6, IL-1; [4]) was “decreased induction” and the “induction of TNF” value (TNF, IL-6, IL-1; [4]) was “decreased induction”. For the same substance, the “epidermal regeneration, histological examination of biopsies” value ([1]; TP4-treated wounds) was “complete and architecturally normal epidermal regeneration”, the “gene expression of EGF” value ([1]; wound tissue, 3 days, vs control and vancomycin-treated mice) was “enhanced gene expression” and the “gene expression of TGF” value ([1]; wound tissue, 7 days, vs control and vancomycin-treated mice) was “enhanced gene expression”. For the same substance, the “gene expression of VEGF” value ([1]; wound tissue, 14 days, vs control and vancomycin-treated mice) was “enhanced gene expression”, the “gene expression of keratin 10” value [2] was “significantly increased” and the “gene expression of keratin 17” value [2] was “did not affect”. The cytotoxic effects [3] was “did not exhibit cytotoxic effects” and the cell proliferation ([3]; Hs-68 cells, low doses, 48 h) was “significantly increased”.
